Laboratory results taken from the NIST ThermoML archive (doi:10.1016/j.jct.2013.08.021).

Assays:
[1] = molar heat capacity at constant pressure; conditions: 101 kPa, Liquid, Small sample (50 mg) DSC
[2] = refractive index (Na D-line) (dimensionless); conditions: 101 kPa, Liquid, Standard Abbe refractometry

CCC[N+]1(C)CCCC1.O=S(=O)([N-]S(=O)(=O)C(F)(F)F)C(F)(F)F
Conditions	molar heat capacity at constant pressure, [1] [J/K/mol]	refractive index, [2]
293.15 K	–	1.42208
298.15 K	–	1.42069
303.15 K	–	1.41928
308.15 K	–	1.41787
313.15 K	541	1.41644
314.15 K	544	–
315.15 K	548	–
316.15 K	551	–
317.15 K	554	–
318.15 K	556	1.415
319.15 K	559	–
320.15 K	561	–
321.15 K	563	–
322.15 K	565	–
323.15 K	567	1.41354
324.15 K	569	–
325.15 K	571	–
326.15 K	573	–
327.15 K	575	–
328.15 K	576	1.41212
329.15 K	578	–
330.15 K	579	–
331.15 K	581	–
332.15 K	582	–
333.15 K	584	1.41073
334.15 K	585	–
335.15 K	586	–
336.15 K	588	–
337.15 K	589	–
338.15 K	590	1.40932
339.15 K	591	–
340.15 K	593	–
341.15 K	594	–
342.15 K	595	–
343.15 K	597	1.40796
344.15 K	598	–
345.15 K	599	–
346.15 K	600	–
347.15 K	601	–
348.15 K	601	–
349.15 K	602	–
350.15 K	604	–
351.15 K	604	–
352.15 K	605	–
353.15 K	606	–
